Experimental data: patent US20240417405A1, “Substituted Spiro Derivatives” (Janssen Pharmaceutica NV, priority 2021, published 2024)

Experiments:
MOLM14 cells = assay: Proliferation assay, spheroid-like growth, MOLM14 (MLL-AF9 rearranged); type: cell-based, human; details: Homo sapiens, MOLM-14, 192 h, 8 days, confluence as measure of spheroid size, read-out: spheroid assay_OneTime MOLM14 IC50
Outline: (§1)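 200 MOLM14 or 300 KO-52 cells/well, ultra-low attachment, compound dilutions, DMSO 0.3%; 8 d, 37 °C, 5% CO2. Read: live-cell imaging confluence (spheroid size) day 8. Absolute IC50, min 0%/max 100% fixed, variable slope.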

KO-52 cells = assay: Proliferation assay, spheroid-like growth, KO-52 (MLL wildtype control cell line); type: cell-based, human; details: Homo sapiens, 192 h, KO-52 control cells, 8 days, confluence as measure of spheroid size; read-out: spheroid assay_OneTime KO-52 IC50
Outline: as §1

[1] = biological target: T1, menin/MLL (terbium chelate-labeled menin, FITC-MBM1 peptide) (Homo sapiens, UniProt O00255, T541A); assay: Menin/MLL homogenous time-resolved fluorescence (HTRF) assay; type: binding; details: 30 min incubation
T1 construct: Menin (a.a 1-610-6xhis tag)
T1 sequence (O00255 with tags, fused parts or gaps T541A): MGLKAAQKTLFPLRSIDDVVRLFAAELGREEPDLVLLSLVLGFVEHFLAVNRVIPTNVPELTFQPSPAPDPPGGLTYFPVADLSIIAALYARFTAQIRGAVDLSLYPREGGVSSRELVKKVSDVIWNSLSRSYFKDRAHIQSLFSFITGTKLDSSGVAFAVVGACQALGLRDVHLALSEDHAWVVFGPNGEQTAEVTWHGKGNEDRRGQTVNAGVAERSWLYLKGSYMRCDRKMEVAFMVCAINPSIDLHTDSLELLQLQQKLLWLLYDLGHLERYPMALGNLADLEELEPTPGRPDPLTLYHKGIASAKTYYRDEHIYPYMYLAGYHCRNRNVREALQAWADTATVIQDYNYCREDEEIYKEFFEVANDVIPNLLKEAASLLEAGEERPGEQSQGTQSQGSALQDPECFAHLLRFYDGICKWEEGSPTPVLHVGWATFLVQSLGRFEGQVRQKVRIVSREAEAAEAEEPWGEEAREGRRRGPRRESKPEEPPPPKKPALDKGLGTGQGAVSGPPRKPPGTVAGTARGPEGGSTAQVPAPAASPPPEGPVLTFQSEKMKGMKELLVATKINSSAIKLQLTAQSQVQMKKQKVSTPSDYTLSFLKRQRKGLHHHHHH
Outline: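 Tb-cryptate menin (1-610, 6xHis) 200 pM + cmpd, 30 min RT; + FITC-MBM1 75 nM, 15 min RT. 40 mM Tris pH 7.5, 50 mM NaCl, 1 mM DTT, 0.05% Pluronic F-127, 0.5% DMSO. HTRF 520/490; 11-pt 4-fold from 10 μM; IC50 fit.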

Structure (SMILES) | IC50 (MOLM14 cells) [nM] | IC50 (KO-52 cells) [nM] | IC50 [1] [nM]
CC(C)[C@@H]([C@H]1C[C@@H](N2CC(OC3CC3)C2)C1)N1CC2(CCN(c3ncnnc3Oc3ccc(F)cc3-c3nnccc3C3CC3)C2)C1 (single isomer, unassigned) [Compound 274] | 2 | 3560 | 0.1
CC(C)[C@@H]([C@H]1C[C@H](N2C[C@H]3COC[C@H]3C2)C1)N1CC2(CCN(c3ncnnc3Oc3ccc(F)cc3-c3cnncc3C3CC3)C2)C1 (single isomer, unassigned) [Compound 279] | 20 | 5990 | 0.1
CC(C)[C@H]([C@H]1C[C@H](N2CCC3(CCO3)CC2)C1)N1CC2(CCN(c3ncnnc3Oc3ccc(F)cc3-c3cnncc3C3CC3)C2)C1 (single isomer, unassigned) [Compound 280b] | 740 | > 15000 | 2.4
CO[C@H]1[C@@H]2CN([C@H]3C[C@H]([C@H](C(C)C)N4CC5(CCN(c6ncnnc6Oc6ccc(F)cc6-c6cnncc6C6CC6)C5)C4)C3)C[C@@H]21 (single isomer, unassigned) [Compound 282b] | 380 | 11500 | 0.5
CC(C)[C@@H]([C@H]1C[C@@H](N2CC[C@H](S(C)(=O)=O)C2)C1)N1CC2(CCN(c3ncnnc3Oc3ccc(F)cc3-c3ncccc3C3CC3)C2)C1 (single isomer, unassigned) [Compound 285] | > 940 | > 15000 | 23.3
CC(C)[C@H]([C@H]1C[C@@H](N2CC[C@H](S(C)(=O)=O)C2)C1)N1CC2(CCN(c3ncnnc3Oc3ccc(F)cc3-c3ncccc3C3CC3)C2)C1 (single isomer, unassigned) [Compound 286] | 120 | 12200 | 0.3
CC(C)[C@@H]([C@H]1C[C@@H](N2CC[C@@H](S(C)(=O)=O)C2)C1)N1CC2(CCN(c3ncnnc3Oc3ccc(F)cc3-c3ncccc3C3CC3)C2)C1 (single isomer, unassigned) [Compound 287] | > 940 | > 15000 | 70.3
CC(C)[C@H]([C@H]1C[C@@H](N2C[C@H]3C[C@@H]2CO3)C1)N1CC2(CCN(c3ncnnc3Oc3ccc(F)cc3-c3ncccc3C3CC3)C2)C1 (single isomer, unassigned) [Compound 288] | 17 | 12100 | 0.1
CC(C)[C@@H]([C@H]1C[C@@H](N2CCC3(COC3)C2)C1)N1CC2(CCN(c3ncnnc3Oc3ccc(F)cc3-c3cccnc3C3CC3)C2)C1 (single isomer, unassigned) [Compound 289] | 2 | 310 | 0.1
CC(C)[C@@H]([C@H]1C[C@@H](N2C[C@H]3C[C@@H]2CO3)C1)N1CC2(CCN(c3ncnnc3Oc3ccc(F)cc3-c3cccnc3C3CC3)C2)C1 (single isomer, unassigned) [Compound 290] | 5 | 1080 | 0.1
CC(C)[C@@H]([C@H]1C[C@H](N2C[C@H]3C[C@@H]2CO3)C1)N1CC2(CCN(c3ncnnc3Oc3ccc(F)cc3-c3cccnc3C3CC3)C2)C1 (single isomer, unassigned) [Compound 291] | 24 | 1070 | 0.2
CC(C)[C@H]([C@H]1C[C@@H](NC(=O)CC2COC2)C1)N1CC2(CCN(c3ncnnc3Oc3ccc(F)cc3-c3cncnc3C3CC3)C2)C1 (single isomer, unassigned) [Compound 296] | 10 | > 15000 | 0.2
CC(C)[C@H]([C@H]1C[C@@H](NC(=O)CCN(C)C)C1)N1CC2(CCN(c3ncnnc3Oc3ccc(F)cc3-c3cncnc3C3CC3)C2)C1 (single isomer, unassigned) [Compound 297] | 10 | 10600 | 0.1
